Source: patent US9163010B2, “Indolinone protein kinase inhibitors” (Beta Pharma, Inc., priority 2011, dated 2015)

What was measured:
VEGFR-1 (Flt-1) = VEGFR-1 (Flt-1) (Homo sapiens (Human), UniProt P17948); test: Enzymatic activity, VEGFR-1 inhibition in vitro; assay type: biochemical; details: read-out: Enzymatic Activities IC50 VEGFR-1 (Flt-1) or VGFR1 FLT1
VEGFR-2 KDR = VEGFR-2 KDR (Homo sapiens (Human), UniProt P35968); test: Enzymatic activity, VEGFR-2 inhibition in vitro; assay type: biochemical; details: read-out: Enzymatic Activities IC50 VEGFR-2 KDR or VGFR2 KDR
VEGFR-3 (Flt-4) = VEGFR-3 (Flt-4) (Homo sapiens (Human), UniProt P35916); test: Enzymatic activity, VEGFR-3 inhibition in vitro; assay type: biochemical
[1] = cited from earlier work

VEGFR-2 KDR, sequence (P35968 20-1356): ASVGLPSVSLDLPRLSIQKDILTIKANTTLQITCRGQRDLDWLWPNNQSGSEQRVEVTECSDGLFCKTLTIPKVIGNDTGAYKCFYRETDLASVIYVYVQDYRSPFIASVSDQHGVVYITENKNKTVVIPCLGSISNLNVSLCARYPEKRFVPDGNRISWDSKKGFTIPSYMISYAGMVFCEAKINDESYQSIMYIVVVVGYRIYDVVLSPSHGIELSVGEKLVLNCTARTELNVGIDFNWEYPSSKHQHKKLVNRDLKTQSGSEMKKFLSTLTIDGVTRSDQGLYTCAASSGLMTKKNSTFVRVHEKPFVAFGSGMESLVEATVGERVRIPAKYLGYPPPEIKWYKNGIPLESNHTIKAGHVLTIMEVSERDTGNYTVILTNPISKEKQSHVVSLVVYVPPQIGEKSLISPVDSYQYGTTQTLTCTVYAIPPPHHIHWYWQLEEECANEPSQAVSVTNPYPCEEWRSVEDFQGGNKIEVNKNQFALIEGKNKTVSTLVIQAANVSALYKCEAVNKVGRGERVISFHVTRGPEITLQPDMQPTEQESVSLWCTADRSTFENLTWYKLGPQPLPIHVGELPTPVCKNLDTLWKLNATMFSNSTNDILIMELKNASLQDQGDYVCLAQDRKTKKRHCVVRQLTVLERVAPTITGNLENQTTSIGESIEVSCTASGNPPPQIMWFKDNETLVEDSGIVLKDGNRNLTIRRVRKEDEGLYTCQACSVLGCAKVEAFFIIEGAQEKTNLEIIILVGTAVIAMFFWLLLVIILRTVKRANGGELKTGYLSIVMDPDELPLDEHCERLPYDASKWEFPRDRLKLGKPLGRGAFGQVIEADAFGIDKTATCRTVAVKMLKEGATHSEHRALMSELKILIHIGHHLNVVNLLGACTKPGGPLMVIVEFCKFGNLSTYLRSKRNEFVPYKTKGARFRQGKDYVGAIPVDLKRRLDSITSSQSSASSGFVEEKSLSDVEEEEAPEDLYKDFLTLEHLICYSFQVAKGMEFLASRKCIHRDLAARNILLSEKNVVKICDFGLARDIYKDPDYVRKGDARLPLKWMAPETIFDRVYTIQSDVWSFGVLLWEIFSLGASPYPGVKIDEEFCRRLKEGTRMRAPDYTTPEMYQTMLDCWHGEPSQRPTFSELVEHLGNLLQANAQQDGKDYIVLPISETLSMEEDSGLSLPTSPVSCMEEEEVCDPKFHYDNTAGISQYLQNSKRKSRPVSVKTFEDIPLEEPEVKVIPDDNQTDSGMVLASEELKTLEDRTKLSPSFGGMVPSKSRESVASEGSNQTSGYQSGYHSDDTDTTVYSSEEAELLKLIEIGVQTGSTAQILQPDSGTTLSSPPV
VEGFR-3 (Flt-4), sequence (P35916 25-1363): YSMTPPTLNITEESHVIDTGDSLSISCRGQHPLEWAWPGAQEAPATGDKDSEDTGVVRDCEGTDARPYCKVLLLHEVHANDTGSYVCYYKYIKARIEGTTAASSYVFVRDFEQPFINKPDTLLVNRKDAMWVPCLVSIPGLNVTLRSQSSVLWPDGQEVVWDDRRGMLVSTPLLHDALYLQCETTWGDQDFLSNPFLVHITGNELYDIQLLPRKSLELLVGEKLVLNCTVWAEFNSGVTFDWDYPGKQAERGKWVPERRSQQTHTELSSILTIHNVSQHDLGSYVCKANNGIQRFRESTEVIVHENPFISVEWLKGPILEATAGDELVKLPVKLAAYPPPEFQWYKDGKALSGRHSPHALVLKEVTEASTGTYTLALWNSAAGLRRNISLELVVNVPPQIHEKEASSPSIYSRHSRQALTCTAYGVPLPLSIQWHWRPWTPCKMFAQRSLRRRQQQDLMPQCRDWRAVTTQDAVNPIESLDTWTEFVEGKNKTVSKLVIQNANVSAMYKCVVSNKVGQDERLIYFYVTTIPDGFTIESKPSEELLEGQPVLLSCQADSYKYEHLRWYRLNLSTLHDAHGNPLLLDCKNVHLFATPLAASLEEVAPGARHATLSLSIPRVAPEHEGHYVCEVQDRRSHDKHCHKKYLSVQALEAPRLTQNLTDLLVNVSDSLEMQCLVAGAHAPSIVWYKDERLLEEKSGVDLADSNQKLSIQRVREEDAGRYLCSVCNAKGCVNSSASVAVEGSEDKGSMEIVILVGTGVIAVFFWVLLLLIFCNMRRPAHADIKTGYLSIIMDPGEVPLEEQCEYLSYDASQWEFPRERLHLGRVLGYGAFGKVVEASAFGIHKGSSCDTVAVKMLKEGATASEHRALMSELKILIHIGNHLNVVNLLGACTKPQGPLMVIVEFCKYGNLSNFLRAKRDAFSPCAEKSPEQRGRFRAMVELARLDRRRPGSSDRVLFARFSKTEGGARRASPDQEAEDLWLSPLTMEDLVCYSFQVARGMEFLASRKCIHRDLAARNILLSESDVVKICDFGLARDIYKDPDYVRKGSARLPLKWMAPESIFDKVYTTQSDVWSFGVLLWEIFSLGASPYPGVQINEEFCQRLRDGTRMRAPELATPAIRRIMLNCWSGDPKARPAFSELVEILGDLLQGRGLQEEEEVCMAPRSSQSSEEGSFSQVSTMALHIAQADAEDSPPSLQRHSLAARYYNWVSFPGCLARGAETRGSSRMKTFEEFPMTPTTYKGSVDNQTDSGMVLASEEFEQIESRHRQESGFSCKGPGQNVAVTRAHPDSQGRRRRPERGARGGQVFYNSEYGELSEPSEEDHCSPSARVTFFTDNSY
VEGFR-1 (Flt-1), sequence (P17948 27-1338): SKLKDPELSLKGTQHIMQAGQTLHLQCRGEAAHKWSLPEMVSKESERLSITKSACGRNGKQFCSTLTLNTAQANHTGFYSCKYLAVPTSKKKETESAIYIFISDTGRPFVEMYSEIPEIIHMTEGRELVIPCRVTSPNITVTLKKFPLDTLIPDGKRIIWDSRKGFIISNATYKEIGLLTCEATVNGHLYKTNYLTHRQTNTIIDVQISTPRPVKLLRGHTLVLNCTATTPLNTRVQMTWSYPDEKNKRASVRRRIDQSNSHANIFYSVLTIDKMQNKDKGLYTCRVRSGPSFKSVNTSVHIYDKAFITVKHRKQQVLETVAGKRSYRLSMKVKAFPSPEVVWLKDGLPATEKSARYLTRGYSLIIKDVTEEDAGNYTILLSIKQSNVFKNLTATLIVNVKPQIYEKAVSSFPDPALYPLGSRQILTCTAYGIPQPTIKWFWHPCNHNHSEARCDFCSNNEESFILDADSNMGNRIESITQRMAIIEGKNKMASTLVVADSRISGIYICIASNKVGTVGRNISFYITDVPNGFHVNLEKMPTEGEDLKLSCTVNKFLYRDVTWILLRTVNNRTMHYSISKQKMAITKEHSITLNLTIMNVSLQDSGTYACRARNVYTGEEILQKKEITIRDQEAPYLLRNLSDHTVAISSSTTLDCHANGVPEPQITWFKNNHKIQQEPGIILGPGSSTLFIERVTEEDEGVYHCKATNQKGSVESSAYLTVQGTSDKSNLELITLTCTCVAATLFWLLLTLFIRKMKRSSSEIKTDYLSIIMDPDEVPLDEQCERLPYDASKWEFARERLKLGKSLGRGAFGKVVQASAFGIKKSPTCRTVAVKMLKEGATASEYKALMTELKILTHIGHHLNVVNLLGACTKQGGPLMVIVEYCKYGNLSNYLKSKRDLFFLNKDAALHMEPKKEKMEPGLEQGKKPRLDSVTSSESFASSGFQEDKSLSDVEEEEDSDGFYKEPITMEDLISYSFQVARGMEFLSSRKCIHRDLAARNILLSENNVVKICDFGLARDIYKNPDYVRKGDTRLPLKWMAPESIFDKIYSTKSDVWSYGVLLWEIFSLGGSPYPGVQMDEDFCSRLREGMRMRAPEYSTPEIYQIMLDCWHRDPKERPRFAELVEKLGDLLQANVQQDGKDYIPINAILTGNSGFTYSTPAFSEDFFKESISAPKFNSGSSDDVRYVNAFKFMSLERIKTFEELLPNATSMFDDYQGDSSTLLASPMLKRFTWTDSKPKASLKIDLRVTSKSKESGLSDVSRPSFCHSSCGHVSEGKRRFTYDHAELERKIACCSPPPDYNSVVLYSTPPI

| Structure (SMILES) | IC50 (VEGFR-1 (Flt-1)) [nM] | IC50 (VEGFR-2 KDR) [nM] | Enzymatic Activities IC50 VEGFR-3 (Flt-4) or VGFR3 FLT4 (VEGFR-3 (Flt-4)) | Patients in whom dose reductions were required to manage toxicities ([1]; patients studied in RCC) [%] | Serious (grade 3 or 4) adverse events, share of patients ([1]; sunitinib therapy, patients) |
| --- | --- | --- | --- | --- | --- |
| Cc1[nH]c(/C=C2\C(=O)Nc3ccc(F)cc32)c(C)c1C(=O)N1CCOCCOCCOCC1 [Formula II] | 40 | 2.5 | No Inhibition | – | – |
| CCN(CC)CCNC(=O)c1c(C)[nH]c(/C=C2\C(=O)Nc3ccc(F)cc32)c1C [Sunitinib, sunitinib] | – | – | – | 50 | up to 10% |
